Measured values: patent US20260174780A1, “BISMUTH-THIOL COMPOSITIONS AND METHODS FOR TREATING INFLAMMATORY DISEASES” (Microbion Corporation, priority 2022, published 2026)

Test system: Hypo-InflammaSkin models
Assay: Ex vivo human skin model of psoriasis (Hypo-InflammaSkin), cytokine release in culture medium
Format: cell-based
Conditions: for secretion of IL-22: Day 7 (FIG. 13R); for secretion of MIP-3α: Day 7 (FIG. 13S)
Excerpt: Background: InflammaSkin® model is a validated psoriasis-like model developed to reproduce key features of pro-Th17/Th1 inflammation associated with psoriasis. It relies on the in situ activation of resident T-cell of normal skin biopsies and their further polarization into Th17/Th1 phenotype with the supplementation of culture medium with a cocktail of pro-inflammatory cytokines.
Model production and culture: 2 HypoSkin models of 15 mm in diameter (1.76 cm^2) were produced from 1 donor and cultured with 2 mL standard HypoSkin® medium. 20 Hypo-InflammaSkin models were produced from 1 donor by inducing in sit activation and Th17/Th1 polarization of skin resident T cells with proprietary cocktail and cultured with 2 mL Hypo-InflammaSkin® culture medium. The total treatable surface area of the models was 113 mm^2, and dosing of BisEDT took this into account based on dosing of the topical treatment. Models were maintained in standard cell culture conditions for the whole culture duration at 37° C., 5% CO2 and water saturation, with appropriate culture medium renewed every day.
Treatment Groups: Model Treatment: (1) HypoSkin® untreated control; (2) Hypo-InflammaSkin® untreated control; (3) topical betamethasone (positive control); (4) topical BisEDT—2.5 mg/mL (treatment applied every day from day 0 to 6; (5) topical BisEDT—1.25 mg/mL (treatment applied every day from day 3 to 6). N=3 per treatment group, except N=5 for Hypo-InflammaSkin® and N=1 for HypoSkin®.
Topical Treatment—Betamethasone (control): 25 μL of betamethasone was topically applied onto the surface of each skin model. Topical application was performed from Day 0 to Day 6 after removal of the previous treatment residues using a cotton swab.
Topical Treatment—BisEDT: 36 μL of the test compound was topically applied onto the surface of each skin model, massaging across the entire surface area for 1 minute, using a parafilm wrapped cotton swab; the compound was left on the skin. Topical application was performed from Day 0 to Day 6 (Treatment Group 4) or Day 3 to Day 6 (Treatment Group 5). A total of 9 models were topically treated.
Culture Media—culture media was collected on Day 3 prior to treatment application and on Day 7 and frozen at −80° C. A total of 42 culture media samples were collected.
IL-22 release: IL-22 release was measured in culture media using ELISA Human IL-22 Quantikine Kit (Bio-techne, ref D2200). Only samples from control conditions 1 to 3 were analyzed to assess donor's response to T cell activation. Each sample was analyzed in duplicate.
MSD Immunoassay—cytokine release (IL-2, IL-13, IL-15, IL-17A, IL-22, TNF-α, INF-γ, MIP-1β, and […]) in the culture medium was measured using the V-PLEX Plus Human Cytokine Kit (KI5089G, MesoScale Discovery) (FIGS. 13D-13S).

[1] = Day 3, compared to HypoInflammaSkin
[2] = Day 7, compared to untreated HypoInflammaSkin controls

## C1C[S][Bi]([S]CC[S][Bi]2[S]CC[S]2)[S]1 [BisEDT, 1,2-(Bis(1,3-dithia-2-bismolane)thio)ethane]
  MIP-1β levels vs betamethasone: lower than the steroid betamethasone
  reducing/preventing inflammation induced in the HypoInflammaSkin models, vs betamethasone: more effective than betamethasone
[1]
  secretion of IL-13: reduced secretion
  secretion of IL-15: reduced secretion
  secretion of IL-17A: reduced secretion
  secretion of INF-γ: reduced secretion
  secretion of MIP-110: reduced secretion
  secretion of TNF-α: reduced secretion
Day 3 and Day 7 (FIGS. 13D, 13E), compared to untreated HypoInflammaSkin
  IL-17A secretion: notable reduction
Day 3 and Day 7 (FIGS. 13F, 13G), compared to untreated HypoInflammaSkin control
  TNF-α: reduction
Day 3 and Day 7 (FIGS. 13H, 13I), compared to untreated HypoInflammaSkin control
  IFNγ secretion: reduced
Day 3 and Day 7 (FIGS. 13L, 13M), compared to untreated HypoInflammaSkin
  secretion of MIP-1β: statistically significant decrease
Day 7
  MIP-1β level: two out of three replicates below LOQ
Compared to untreated HypoInflammaSkin control, listed as Pravibismane
  secretion of IL-22: reduced secretion
Compared to untreated HypoInflammaSkin control, listed as pravibismane
  secretion of IL-22: continued to decrease
Compared to untreated HypoInflammaSkin, listed as Pravibismane
  secretion of MIP-3α: statistically significant decrease
Compared to untreated HypoInflammaSkin, listed as pravibismane
  secretion of MIP-3α: continued to decrease
[2]
  secretion of IFN-γ: continued to decrease
  secretion of IL-13: continued to decrease
  secretion of IL-15: continued to decrease
  secretion of IL-17A: continued to decrease
  secretion of MIP-1β: continued to decrease
  secretion of TNF-α: continued to decrease
Pravibismane (day 3), compared to untreated HypoInflammaSkin
  IL-15 secretion: statistically significant reduction
Pravibismane treatment (day 3)
  IL-15 secretion vs HypoSkin untreated: even lower than healthy uninflamed skin
topical, started at day 0 or day 3
  IL-17A levels vs positive control (betamethasone): even lower than positive control
Treatment from day 0 (FIGS. 13N, 13O), compared to HypoInflammaSkin control
  IL-13 secretion: reduced
Treatment starting at Day 0
  IFN-γ levels vs positive control (betamethasone): even lower than positive control
  TNF-α levels vs positive control (betamethasone): even lower than positive control
